What was measured:
[1] = test system: translation of the luciferase reporter gene; assay: In vitro protein translation (luciferase reporter); type: biochemical; conditions: 30° C. for 1 h
Method: (§1) In vitro protein translation—TNT quick coupled transcription/translation system [Promega] was used for in vitro translation. TNT Quick Master Mix and T7 luciferase control DNA were mixed according to the manufacturer's protocol, and incubated with compounds at 30° C. for 1 h. After the addition of Luciferase assay reagent [Promega], luminescence from the control luciferase product was read by Synergy HT [BioTek] to measure the effect of compounds on protein translation.

nucleophosmin (NPM) = target: T1, nucleophosmin (NPM) (Homo sapiens, UniProt P06748); assay: CETSA and isothermal dose-response, NPM; type: cell-based; conditions: HEK293T cells, compared to β-tubulin and GAPDH
T1 construct: hordenine with HEK293T cells at 20 μM for 3 h; endogenous in cells; host or cells: HEK293T
T1 sequence (P06748 whole entry): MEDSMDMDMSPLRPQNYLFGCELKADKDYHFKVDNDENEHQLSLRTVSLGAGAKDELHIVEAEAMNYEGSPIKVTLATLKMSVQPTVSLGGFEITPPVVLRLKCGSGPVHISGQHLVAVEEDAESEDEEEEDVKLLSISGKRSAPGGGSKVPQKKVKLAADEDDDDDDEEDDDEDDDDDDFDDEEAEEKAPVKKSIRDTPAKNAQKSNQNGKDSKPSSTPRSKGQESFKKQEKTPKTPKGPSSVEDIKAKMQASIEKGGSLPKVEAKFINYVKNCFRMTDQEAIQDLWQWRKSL
Method: (§2) Western blot—The soluble fraction was mixed with 5×Laemmli buffer followed by heating at 95° C. for 5 min. Proteins were separated by SDS-PAGE and transferred to PVDF membranes. The membranes were in tris-buffered saline with Tween-20 (TBST) including 2% BSA for 1 h at 4° C., and incubated with primary antibodies (anti-DHFR [ab133546, abcam], anti-TYMS [3766, Cell signaling], anti-PKCα [2056, Cell signaling], anti-PKCβI [ab195039, abcam], anti-PKCβII [ab32026, abcam], anti-PKCγ [402 ab131222, abcam], anti-PKCδ [9616, Cell signaling], anti-PKCε [ab124806, abcam], anti-PKCμ [2052, Cell signaling], anti-PKCθ [ab110728, abcam], anti-PKCζ [9368, Cell signaling], anti-NPM [ab52644, abcam], anti-RPSA [ab133645, abcam], anti-SET [ab176567, abcam], anti-EEF1D [ab88868, abcam], anti-GAPDH [2118, Cell signaling], and anti-β-tubulin [2146, Cell signaling])) overnight. The membrane was then washed with TBST and incubated with secondary antibodies (anti-rabbit IgG, HRP linked [7074, Cell signaling]) for 1 h at room temperature. The membranes were developed with Amersham ECL prime western blotting detection reagent [GE Healthcare], and detected by ChemiDoc [Bio-Rad]. The relative band intensities to 37° C. was calculated within each of drug-treated group and control group each for the CETSA curves. For ITDR curves, the relative band intensities to DMSO group was calculated.

[2] = target: T2, elongation factor 1-delta (EEF1D) (Homo sapiens, UniProt P29692); assay: CETSA, EEF1D; type: cell-based; conditions: HEK293T cells
T2 construct: hordenine with HEK293T cells at 20 μM for 3 h; endogenous in cells; host or cells: HEK293T
T2 sequence (P29692 1-281): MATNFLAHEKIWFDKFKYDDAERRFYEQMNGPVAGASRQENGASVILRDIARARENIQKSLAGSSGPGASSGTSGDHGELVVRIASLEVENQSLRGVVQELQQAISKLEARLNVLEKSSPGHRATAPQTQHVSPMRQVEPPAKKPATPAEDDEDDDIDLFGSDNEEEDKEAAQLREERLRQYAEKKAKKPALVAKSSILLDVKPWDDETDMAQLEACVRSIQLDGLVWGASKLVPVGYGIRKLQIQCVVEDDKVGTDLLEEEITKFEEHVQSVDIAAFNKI
Method: as §2

protein SET (SET) = target: T3, protein SET (SET) (Homo sapiens, UniProt Q01105); assay: CETSA, SET; type: cell-based; conditions: HEK293T cells
T3 construct: hordenine with HEK293T cells at 20 μM for 3 h; endogenous in cells; host or cells: HEK293T
T3 sequence (Q01105 whole entry): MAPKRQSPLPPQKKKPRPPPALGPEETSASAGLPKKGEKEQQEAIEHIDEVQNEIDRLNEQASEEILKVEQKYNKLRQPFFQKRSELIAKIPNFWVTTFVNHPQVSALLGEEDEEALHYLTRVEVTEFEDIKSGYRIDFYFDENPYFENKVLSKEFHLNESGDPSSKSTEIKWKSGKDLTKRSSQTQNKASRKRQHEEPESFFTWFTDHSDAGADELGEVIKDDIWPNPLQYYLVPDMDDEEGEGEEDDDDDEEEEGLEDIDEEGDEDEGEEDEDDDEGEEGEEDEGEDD
Method: as §2

[3] = target: T4, 40S ribosomal protein SA (RPSA) (Homo sapiens, UniProt P08865); assay: CETSA, RPSA; type: cell-based; conditions: HEK293T cells
T4 construct: hordenine with HEK293T cells at 20 μM for 3 h; endogenous in cells; host or cells: HEK293T
Method: as §2

NPM = target: T5, NPM (Oryctolagus cuniculus, UniProt G1T0N4); assay: Nucleophosmin depletion for functional validation (in vitro translation); type: biochemical; conditions: 10 μM of hordenine, 30° C. for 1 h
T5 construct: incubated with the in vitro translation system to scavenge NPM; tissue Promega; host or cells: TNT Quick Master Mix (reticulocyte lysate, own knowledge)
T5 sequence (G1T0N4 1-294): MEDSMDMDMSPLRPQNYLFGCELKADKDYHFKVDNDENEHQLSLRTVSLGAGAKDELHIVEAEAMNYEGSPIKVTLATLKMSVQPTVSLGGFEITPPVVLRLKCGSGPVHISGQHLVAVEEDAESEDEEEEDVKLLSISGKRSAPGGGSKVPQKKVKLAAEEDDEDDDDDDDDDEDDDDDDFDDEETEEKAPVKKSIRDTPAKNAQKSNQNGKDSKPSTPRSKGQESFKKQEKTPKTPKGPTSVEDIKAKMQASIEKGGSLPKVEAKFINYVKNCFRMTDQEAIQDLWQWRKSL
Method: as §1
Nucleophosmin depletion for functional validation—Protein G sepharose beads [Sigma] were washed with PBS and incubated with anti-NPM antibody at 4° C. for 2 h. Unbound antibodies were washed away. The anti-NPM bound Protein G beads were mixed with TNT Quick Master Mix and incubated at 4° C. for 2 h. The beads were removed by centrifugation, and the supernatant was incubated with T7 luciferase control DNA and 10 μM of hordenine at 30° C. for 1 h. Luminescence was read after the addition of Luciferase assay reagent.

PKCα [4] = target: T6, PKCα (Homo sapiens, UniProt P17252); assay: CETSA and isothermal dose-response, PKCα; type: cell-based; conditions: Jurkat cells, 48° C.
T6 construct: Jurkat cell was used for bryostatin 1; endogenous in cells; host or cells: Jurkat clone E6-1
Method: HEK293T cells were harvested with trypsin/EDTA solution and resuspended in a conical tube before compound treatment. […] After the compound treatment, cells were aliquoted, heated to a range of temperature for 3 min, and cooled to 25° C. for 3 min. The heated cells were harvested, washed with PBS, and resuspended with lysis buffer (PBS supplemented with protease inhibitor cocktail). The cell suspension was freeze-thawed three times with liquid nitrogen for cell lysis. Soluble fraction was separated from the cell lysate following centrifugation at 20,000 g for 20 min at 4° C. Procedures for isothermal dose-response (ITDR) analysis was identical with the above-mentioned procedures except that cells were treated with various compound concentrations and heated at a fixed temperature.
Western blot—The soluble fraction was mixed with 5×Laemmli buffer followed by heating at 95° C. for 5 min. Proteins were separated by SDS-PAGE and transferred to PVDF membranes. […] The membranes were developed with Amersham ECL prime western blotting detection reagent [GE Healthcare], and detected by ChemiDoc [Bio-Rad]. The relative band intensities to 37° C. was calculated within each of drug-treated group and control group each for the CETSA curves. For ITDR curves, the relative band intensities to DMSO group was calculated. […]

PKCα [5] = target: T6, PKCα; assay: Translocation of PKCα between soluble and insoluble fraction (western blot); type: cell-based; conditions: lysis buffer without a mild detergent

CN(C)CCc1ccc(O)cc1 [hordenine, N,N-dimethyltyramine]
effect on translation of the luciferase reporter gene [1]: increase the translation | thermal stability shift of NPM (CETSA) (nucleophosmin (NPM)): significant thermal stabilization | thermal stability shift of EEF1D (CETSA) [2]: did not | thermal stability shift of SET (CETSA) (protein SET (SET)): did not | thermal stability shift of RPSA (CETSA) [3]: did not | upregulating efficacy on luciferase gene translation diminished after NPM depletion (NPM): 72.7%

CCC/C=C/C=C/C(=O)O[C@H]1/C(=C/C(=O)OC)C[C@H]2C[C@H]([C@@H](C)O)OC(=O)C[C@H](O)C[C@@H]3C[C@H](OC(C)=O)C(C)(C)[C@](O)(C[C@@H]4C/C(=C/C(=O)OC)C[C@H](/C=C/C(C)(C)[C@]1(O)O2)O4)O3 [bryostatin 1]
isothermal dose-response of PKCα (PKCα [4]): dose-dependent thermal destabilization | location of PKCα (soluble / insoluble fraction) (PKCα [5]): moved to insoluble fraction

Source: patent US11105813B2, “Method for target protein identification using thermal stability shift-based fluorescence difference in two-dimensional gel electrophoresis” (priority 2016, dated 2021)
